Measurements: patent publication US20240294478A1, “ANTI-CANCER COMPOUNDS AND METHODS OF USE” (YALE UNIVERSITY, priority 2021, published 2024)

Legend:
MGMT− LN229 cells = assay: Clonogenic survival assay, LN229 MGMT- cells; format: cell-based, human
Procedure: (§1) In vitro clonogenic survival assays (CSAs) were performed using four isogenic LN229 glioblastoma cell lines.
(§2) Clonogenic Cell Survival Assay. Cells of each line were pretreated with the test drug in culture for 48-72 hours at the specified dilutions. The cells were then immediately seeded in six-well plates in triplicate at three-fold dilutions, ranging from 9000 to 37 cells per well. Depending on colony size, these plates were kept in the incubator for 10 to 14 days. After incubation, colonies were washed in phosphate-buffered saline (PBS) and stained with crystal violet. Colonies were counted by hand. Counts were normalized to plating efficiency of the corresponding treatment condition.

HCT116 MLH1−/− cells = assay: Short-term viability assay, HCT116 MLH1-/- cells +/- O6BG; format: cell-based, human; details: with or without 10 μM O6BG pre-treatment
Procedure: (§3) FIG. 1B: Short-term viability assay curves for KL-50 in DLD1 MSH6-deficient cells pre-treated with 0.01% DMSO control (CTR) or 10 μM O^6BG (+O^6BG) for 1 h prior to KL-50 addition. […] Short-term viability assay curves for (FIG. 1E) KL-50 in HCT116 MLH1−/−cells or (FIG. 1F) HCT116 cells complemented with chromosome 3 carrying wildtype MLH1 (+Chr3) pre-treated with 0.01% DMSO control or 10 μM O^6BG (+O^6BG) for 1 h prior to KL-50 addition. […] For these figures, points, mean; error bars, SD; n>3 technical replicates.
(§4) Short-term Cell Viability Assay. Cells were seeded in 96-well plates at 1000 or 2000 cells/well and allowed to adhere at 23° C. for 60 min and then incubated overnight at 37° C. Cells were treated with indicated concentrations of compounds in triplicate for 4-6 days prior to fixation with 3.7% paraformaldehyde and nuclear staining with 1 μg/mL Hoechst 33342 dye. Cells were imaged on a Cytation 3 imaging reader (BioTek) and quantified using CellProfiler software. For in vitro short-term growth delay experiments, IC50 values were determined from the nonlinear regression equation, [inhibitor] vs normalized response with variable slope.

[1] = system: DLD1 colorectal adenocarcinoma cells (MSH6−); assay: Short-term viability assay, DLD1 MSH6-deficient cells +/- O6BG; format: cell-based, human; details: with or without 10 μM O6BG pre-treatment (MGMT depletion)
Procedure: as §3, §4

[2] = system: ATR-CHK1 and ATM-CHK2 signaling axes in LN229 MGMT+/−, MMR+/− cells; assay: Western blotting of CHK1 and CHK2 phosphorylation; format: cell-based, human; details: 20 μM, 24 or 48 h
Procedure: FIGS. 5A-5K: KL-50 activates DNA damage response pathways and cycle arrest in MGMT-cells, independent of MMR, and induces sensitivity in cells deficient in ICL or HR repair. […] Columns, mean; error bars, SD; n 5 technical replicates. FIGS. 5D-5K: KL-50 induces activation of the ATR-CHK1 and ATM-CHK2 signaling axes and delayed DNA repair foci formation in MGMT-deficient cells, independent of MMR status. […] Treatment with 1 μM doxorubicin for 24 h (Doxo) served as a positive control for p-CHK1 activation. […] Points, mean % cells with >10 foci; error bars, SD; n >5 technical replicates. […] Points, % cells with 10 foci, n>250 cells per condition.
A prior finding that the ATR-CHK1 signaling axis is activated in response to TMZ-induced replication stress in MGMT-deficient cells prompted analysis of the phosphorylation status of CHK1 and CHK2 in LN229 MGMT+/− and MMR+/−cells. […] Analysis of foci formation of the DDR factors phospho-SER139-H2AX (yH2AX), p53 binding protein 1 (53BP1), and phospho-SER33-RPA2 (pRPA) over the period of 2 to 48 h (FIGS. 5A-5C and FIGS. 5D-5I). […] However, these foci dissipate at later timepoints (72-96 h; FIGS. 5J-5K), and they are not associated with appreciable cellular toxicity (as shown earlier in FIGS. 2A and 2B).

[3] = system: LN229 MGMT−/MMR+ flank tumors; assay: Murine flank tumor model, LN229 MGMT-/MMR+; format: in vivo, mouse; details: 5 mg/kg MWF x 3 weeks, P.O.
From the text: FIGS. 9A-91: KL-50 is safe and efficacious on both MGMT−/MMR+ and MGMT−/MMR-flank tumors over a wide range of treatment regimens and conditions. […] (FIG. 9C) Mean body weight of mice during LN229 flank tumor experiments. (FIG. 9D) Kaplan-Meier analysis of LN229 MGMT−/MMR− xenograft flank tumor-bearing mice to determine survival rate based on death, removal from study if mouse body weight loss exceeded 20% of initial body weight, or if tumor volume exceeded 2000 mm^3. […] (FIGS. 9H-91) Xenograft LN229 MGMT−/MMR+ and LN229 MGMT−/MSH6—flank tumors with a larger average starting tumor size of −400 mm^3 and −350 mm^3 respectively, treated with 3 weekly cycles of P.O administration of 10% cyclodextrin (n=4) or KL-50 (n=4, 3 cycles of 25 mg/kg on Monday, Wednesday, and Friday). The study period was limited by control groups which had to be euthanized for exceeding the ethical maximum allowed tumor size, thus ending the study. In all panels, points, mean; error bars, SEM; *, P<0.05; **, P<0.01; ***, P<0.001; ****, P<0.0001; ns, not significant.
Mouse Protocols for Flank Studies. A mouse tumor model was established by subcutaneously implanting human LN229 (MGMT−/MMR+) or LN229 (MGMT−/MMR−) cells. […] During the final centrifugation, viability was determined using trypan blue exclusion. […]

MGMT+ LN229 cells = assay: Clonogenic survival assay, LN229 MGMT+ cells; format: cell-based, human
Procedure: as §1, §2

SMILES: NC(=O)c1ncn2c(=O)n(CCF)nnc12 [KL-50]
- clonogenic survival, antitumor activity in MGMT− cells (MGMT− LN229 cells; independent of MMR status): robust antitumor activity
- cytotoxicity in HCT116 MLH1-deficient cells (HCT116 MLH1−/− cells): induced selective tumor cell killing specifically in the setting of O^6BG-induced MGMT suppression
- cytotoxicity in DLD1 cells [1]: toxic to these cells, but only after O^6BG-induced MGMT depletion
- CHK1 and CHK2 phosphorylation [2]: induced CHK1 and CHK2 phosphorylation in MGMT-cells regardless of MMR status
- tumor growth, MGMT−/MMR+ flank tumors [3]: statistically non-inferior to TMZ
- clonogenic survival, toxicity to MGMT+ cells (MGMT+ LN229 cells; at doses up to at least 200 μM): minimal toxicity

SMILES: Cn1nnc2c(C(N)=O)ncn2c1=O [TMZ, 4-methyl-5-oxo-2,3,4,6,8-pentazabicyclo[4.3.0]nona-2,7,9-triene-9-carboxamide, reference compound]
- clonogenic survival, activity in MGMT−, MMR+ cells (MGMT− LN229 cells): robust tumor cell killing
- clonogenic survival, activity in MMR− cells (MGMT− LN229 cells; isogenic cells lacking MMR): abolished
- cytotoxicity in HCT116 MLH1-deficient cells (HCT116 MLH1−/− cells): inactive
- cytotoxicity in DLD1 cells [1]: inactive
- CHK1 and CHK2 phosphorylation [2]: only induced phospho-CHK1 and —CHK2 in MGMT−/MMR+cells
- tumor growth, MGMT−/MMR+ flank tumors [3]: suppressed tumor growth
- clonogenic survival, activity in MGMT+ cells (MGMT+ LN229 cells; irrespective of MMR status): negligible activity
